Measured values published in BigSolDB 2.1.

O=[N+]([O-])/N=C1\NCCN1Cc1ccc(Cl)nc1
solubility (mole fraction)
Settings | 283.15 K | 288.15 K | 293.15 K | 298.15 K | 303.15 K | 308.15 K | 313.15 K | 318.15 K | 323.15 K
in acetone | 0.00862 | 0.0102 | 0.012 | 0.014 | 0.0163 | 0.0188 | 0.0218 | 0.0249 | 0.0285
in ethanol | 0.000303 | 0.0004 | 0.00053 | 0.000699 | 0.000895 | 0.00115 | 0.00148 | 0.00191 | 0.00238
in methanol | 0.000689 | 0.000882 | 0.00112 | 0.00141 | 0.00177 | 0.00221 | 0.00274 | 0.00339 | 0.0041
in n-propanol | 0.000266 | 0.000362 | 0.000475 | 0.00064 | 0.000837 | 0.00109 | 0.0014 | 0.00179 | 0.00228
in water | 6.79e-06 | 9.67e-06 | 1.36e-05 | 1.87e-05 | 2.56e-05 | 3.43e-05 | 4.71e-05 | 6.23e-05 | 8.15e-05
